# Source: paper PMC2655357 (The Febs Journal, 2008)
# Target: AaIspE (Aquifex aeolicus, UniProt O67060)
# Assay: crystal structure
# Type: binding
# Settings: co-crystallized with 4 mM AMP-PNP and 4 mM CDP; substrate (CDPME) site
# AaIspE, sequence (O67060 whole entry): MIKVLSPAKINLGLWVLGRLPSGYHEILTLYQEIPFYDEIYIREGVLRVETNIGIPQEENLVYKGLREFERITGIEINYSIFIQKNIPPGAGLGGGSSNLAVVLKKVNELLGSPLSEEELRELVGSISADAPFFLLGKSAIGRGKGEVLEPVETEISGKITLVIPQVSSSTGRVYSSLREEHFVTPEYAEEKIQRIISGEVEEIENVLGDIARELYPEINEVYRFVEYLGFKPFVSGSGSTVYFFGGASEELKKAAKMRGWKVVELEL
smiles,measurement,value
Nc1ccn([C@@H]2O[C@H](COP(=O)(O)OP(=O)(O)O)[C@@H](O)[C@H]2O)c(=O)n1 [CDP],"crystal structure (complex I, 2.1 Å)","In complex I, CDP displays a single conformation in molecule A and three in molecule B"
